Columns and labels:
[1] = target: T1, G protein-coupled receptor kinase 3 (Homo sapiens) (UniProt P35626); assay: ADRBK2 (GRK3) Kinase screen; details: Compound concentration 1.0 uM
T1 sequence (whole entry): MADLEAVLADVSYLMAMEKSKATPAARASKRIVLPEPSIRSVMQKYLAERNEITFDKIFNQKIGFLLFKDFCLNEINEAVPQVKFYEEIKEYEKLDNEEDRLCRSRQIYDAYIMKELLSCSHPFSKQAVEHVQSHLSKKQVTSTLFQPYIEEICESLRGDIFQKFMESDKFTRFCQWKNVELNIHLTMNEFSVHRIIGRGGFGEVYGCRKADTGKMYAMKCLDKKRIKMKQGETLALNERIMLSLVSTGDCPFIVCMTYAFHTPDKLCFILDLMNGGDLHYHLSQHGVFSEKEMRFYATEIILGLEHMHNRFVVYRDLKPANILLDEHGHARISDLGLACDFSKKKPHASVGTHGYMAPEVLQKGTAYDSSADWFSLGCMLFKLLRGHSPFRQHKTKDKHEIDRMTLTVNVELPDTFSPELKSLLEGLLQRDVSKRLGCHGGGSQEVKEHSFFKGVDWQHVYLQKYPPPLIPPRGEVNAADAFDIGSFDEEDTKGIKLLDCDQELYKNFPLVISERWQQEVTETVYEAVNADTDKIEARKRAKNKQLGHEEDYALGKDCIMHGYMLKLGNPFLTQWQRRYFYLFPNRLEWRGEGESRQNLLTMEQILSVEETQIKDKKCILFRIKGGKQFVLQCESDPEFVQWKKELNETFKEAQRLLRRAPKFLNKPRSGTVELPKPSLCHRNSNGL

[2] = target: Serine/threonine-protein kinase PAK 5 (Homo sapiens) (UniProt Q9P286); assay: PAK7 (KIAA1264) Kinase screen; details: Compound concentration 1.0 uM
Serine/threonine-protein kinase PAK 5 (Homo sapiens), sequence (Q9P286 whole entry, looked up): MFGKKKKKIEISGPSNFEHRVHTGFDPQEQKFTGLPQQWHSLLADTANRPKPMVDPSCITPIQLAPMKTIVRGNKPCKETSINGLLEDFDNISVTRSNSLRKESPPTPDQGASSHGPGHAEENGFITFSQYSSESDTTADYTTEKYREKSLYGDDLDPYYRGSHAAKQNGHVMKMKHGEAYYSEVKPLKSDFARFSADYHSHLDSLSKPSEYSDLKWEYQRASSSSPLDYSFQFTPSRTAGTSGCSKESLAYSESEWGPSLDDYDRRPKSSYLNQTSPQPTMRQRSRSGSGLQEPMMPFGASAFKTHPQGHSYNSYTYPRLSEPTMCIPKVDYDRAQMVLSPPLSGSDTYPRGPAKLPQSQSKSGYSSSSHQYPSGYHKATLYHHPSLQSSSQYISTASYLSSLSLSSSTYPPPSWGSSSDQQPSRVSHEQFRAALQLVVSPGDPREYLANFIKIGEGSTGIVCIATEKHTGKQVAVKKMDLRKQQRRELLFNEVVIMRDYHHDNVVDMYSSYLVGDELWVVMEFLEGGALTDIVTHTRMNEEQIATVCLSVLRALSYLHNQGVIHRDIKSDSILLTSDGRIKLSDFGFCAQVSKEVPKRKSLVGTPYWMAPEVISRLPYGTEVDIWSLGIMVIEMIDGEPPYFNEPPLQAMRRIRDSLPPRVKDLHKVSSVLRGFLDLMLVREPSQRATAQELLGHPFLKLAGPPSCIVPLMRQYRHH

[3] = target: Cyclin-dependent kinase 2/cyclin A (Homo sapiens) (UniProt P24941+P20248+P78396); assay: CDK2/cyclin A Kinase screen; type: protein-complex assay; details: Compound concentration 1.0 uM
[4] = target: NT-3 growth factor receptor (Homo sapiens) (UniProt Q16288); assay: NTRK3 (TRKC) Kinase screen; details: Compound concentration 1.0 uM
NT-3 growth factor receptor (Homo sapiens), sequence (Q16288 32-839 limits assumed): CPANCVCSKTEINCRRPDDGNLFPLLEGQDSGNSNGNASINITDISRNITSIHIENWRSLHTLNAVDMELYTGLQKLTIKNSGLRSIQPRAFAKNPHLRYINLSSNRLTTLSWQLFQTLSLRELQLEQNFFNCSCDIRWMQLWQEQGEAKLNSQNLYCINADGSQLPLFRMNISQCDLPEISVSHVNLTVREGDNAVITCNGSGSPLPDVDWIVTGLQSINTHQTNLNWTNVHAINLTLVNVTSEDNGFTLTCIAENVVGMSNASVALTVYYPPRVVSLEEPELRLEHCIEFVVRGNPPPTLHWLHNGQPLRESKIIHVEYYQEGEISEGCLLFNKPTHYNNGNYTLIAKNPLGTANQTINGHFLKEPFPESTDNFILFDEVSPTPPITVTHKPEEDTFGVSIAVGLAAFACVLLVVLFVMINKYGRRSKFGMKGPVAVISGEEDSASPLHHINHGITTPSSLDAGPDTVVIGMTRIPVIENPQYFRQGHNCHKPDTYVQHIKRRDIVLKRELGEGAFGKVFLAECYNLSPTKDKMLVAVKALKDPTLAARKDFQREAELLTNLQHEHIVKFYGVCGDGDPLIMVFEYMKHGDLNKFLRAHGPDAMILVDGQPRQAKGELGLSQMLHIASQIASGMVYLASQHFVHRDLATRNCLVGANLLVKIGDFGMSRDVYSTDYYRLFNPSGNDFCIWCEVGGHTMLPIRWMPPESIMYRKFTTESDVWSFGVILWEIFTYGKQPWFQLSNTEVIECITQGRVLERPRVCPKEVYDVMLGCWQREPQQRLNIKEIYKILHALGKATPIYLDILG

[5] = target: Calcium/calmodulin-dependent protein kinase type 1D (Homo sapiens) (UniProt Q8IU85); assay: CAMK1D (CaMKI delta) Kinase screen; details: Compound concentration 1.0 uM
Calcium/calmodulin-dependent protein kinase type 1D (Homo sapiens), sequence (Q8IU85 whole entry, looked up): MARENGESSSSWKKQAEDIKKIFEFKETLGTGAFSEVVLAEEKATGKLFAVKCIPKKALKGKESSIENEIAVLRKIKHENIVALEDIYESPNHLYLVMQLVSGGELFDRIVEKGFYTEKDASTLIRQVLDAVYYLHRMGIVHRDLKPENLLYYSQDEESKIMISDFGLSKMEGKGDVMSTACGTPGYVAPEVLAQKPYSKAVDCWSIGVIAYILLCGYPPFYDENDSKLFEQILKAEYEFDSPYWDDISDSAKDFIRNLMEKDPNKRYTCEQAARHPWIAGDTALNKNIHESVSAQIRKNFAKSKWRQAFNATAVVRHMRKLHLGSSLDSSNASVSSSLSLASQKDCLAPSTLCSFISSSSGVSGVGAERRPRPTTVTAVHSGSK

[6] = target: Serine/threonine-protein kinase Nek6 (Homo sapiens) (UniProt Q9HC98); assay: NEK6 Kinase screen; details: Compound concentration 1.0 uM
Serine/threonine-protein kinase Nek6 (Homo sapiens), sequence (Q9HC98 whole entry): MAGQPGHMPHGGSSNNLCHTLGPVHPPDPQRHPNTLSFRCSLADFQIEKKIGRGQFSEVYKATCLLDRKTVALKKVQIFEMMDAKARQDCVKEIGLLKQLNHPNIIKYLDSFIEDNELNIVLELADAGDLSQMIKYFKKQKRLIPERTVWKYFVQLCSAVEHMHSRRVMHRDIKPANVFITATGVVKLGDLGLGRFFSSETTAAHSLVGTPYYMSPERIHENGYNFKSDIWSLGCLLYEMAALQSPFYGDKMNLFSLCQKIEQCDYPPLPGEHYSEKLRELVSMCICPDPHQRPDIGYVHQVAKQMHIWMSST

[7] = target: Leukocyte tyrosine kinase receptor (Homo sapiens) (UniProt P29376); assay: LTK (TYK1) Kinase screen; details: Compound concentration 1.0 uM
Leukocyte tyrosine kinase receptor (Homo sapiens), sequence (P29376 whole entry): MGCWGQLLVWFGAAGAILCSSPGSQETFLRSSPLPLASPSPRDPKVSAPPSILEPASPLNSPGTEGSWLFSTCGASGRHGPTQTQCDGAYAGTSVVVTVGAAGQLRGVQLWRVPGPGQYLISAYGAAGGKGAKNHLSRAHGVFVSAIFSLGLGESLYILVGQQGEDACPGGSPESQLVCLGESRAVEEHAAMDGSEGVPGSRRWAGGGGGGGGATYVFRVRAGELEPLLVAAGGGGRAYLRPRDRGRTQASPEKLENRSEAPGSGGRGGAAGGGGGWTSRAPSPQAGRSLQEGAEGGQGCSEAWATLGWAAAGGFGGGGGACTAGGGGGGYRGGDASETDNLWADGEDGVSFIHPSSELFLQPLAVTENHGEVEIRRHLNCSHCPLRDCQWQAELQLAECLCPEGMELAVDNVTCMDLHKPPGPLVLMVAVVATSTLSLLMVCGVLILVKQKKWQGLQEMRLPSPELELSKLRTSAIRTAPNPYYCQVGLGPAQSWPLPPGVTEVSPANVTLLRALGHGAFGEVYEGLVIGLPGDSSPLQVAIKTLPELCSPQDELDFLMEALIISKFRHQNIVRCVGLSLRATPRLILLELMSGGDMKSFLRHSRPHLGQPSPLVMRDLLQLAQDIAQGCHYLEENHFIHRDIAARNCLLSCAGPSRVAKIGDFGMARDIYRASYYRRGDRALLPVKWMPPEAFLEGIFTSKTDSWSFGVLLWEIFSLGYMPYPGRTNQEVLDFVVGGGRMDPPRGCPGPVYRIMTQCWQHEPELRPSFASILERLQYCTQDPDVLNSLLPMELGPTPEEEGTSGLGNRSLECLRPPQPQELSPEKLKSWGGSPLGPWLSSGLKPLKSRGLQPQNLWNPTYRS

[8] = target: CDK9/Cyclin K (Homo sapiens) (UniProt P50750+O75909); assay: CDK9/cyclin K Kinase screen; type: protein-complex assay; details: Compound concentration 1.0 uM
[9] = target: T2, Serine/threonine-protein kinase TAO3 (Homo sapiens) (UniProt Q9H2K8); assay: TAOK3 (JIK) Kinase screen; details: Compound concentration 1.0 uM
T2 sequence (whole entry): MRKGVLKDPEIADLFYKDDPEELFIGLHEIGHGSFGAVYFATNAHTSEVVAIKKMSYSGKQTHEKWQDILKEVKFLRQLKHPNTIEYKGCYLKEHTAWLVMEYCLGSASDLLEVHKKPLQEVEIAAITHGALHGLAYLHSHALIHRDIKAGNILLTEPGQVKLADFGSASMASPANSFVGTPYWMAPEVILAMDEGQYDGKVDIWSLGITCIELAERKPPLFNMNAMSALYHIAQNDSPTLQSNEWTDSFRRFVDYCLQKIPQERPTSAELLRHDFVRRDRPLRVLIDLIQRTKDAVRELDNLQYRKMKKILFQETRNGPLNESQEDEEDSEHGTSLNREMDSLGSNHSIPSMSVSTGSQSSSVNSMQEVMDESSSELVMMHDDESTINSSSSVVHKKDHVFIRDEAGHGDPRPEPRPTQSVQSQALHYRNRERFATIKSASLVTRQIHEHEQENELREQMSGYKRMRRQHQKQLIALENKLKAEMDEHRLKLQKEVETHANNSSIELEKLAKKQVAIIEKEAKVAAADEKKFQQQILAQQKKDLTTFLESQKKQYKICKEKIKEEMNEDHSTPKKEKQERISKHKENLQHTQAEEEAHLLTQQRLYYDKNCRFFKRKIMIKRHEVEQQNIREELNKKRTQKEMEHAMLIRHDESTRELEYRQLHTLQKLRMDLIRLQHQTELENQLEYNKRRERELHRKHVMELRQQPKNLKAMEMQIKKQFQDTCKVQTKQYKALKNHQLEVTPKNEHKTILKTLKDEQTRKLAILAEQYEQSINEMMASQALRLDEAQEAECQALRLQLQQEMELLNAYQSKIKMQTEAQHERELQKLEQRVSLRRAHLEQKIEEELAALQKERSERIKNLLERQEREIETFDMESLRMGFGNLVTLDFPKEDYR

[10] = target: D(1A) dopamine receptor (Homo sapiens) (UniProt P21728); details: Compound concentration 10.0 uM
D(1A) dopamine receptor (Homo sapiens), sequence (P21728 whole entry): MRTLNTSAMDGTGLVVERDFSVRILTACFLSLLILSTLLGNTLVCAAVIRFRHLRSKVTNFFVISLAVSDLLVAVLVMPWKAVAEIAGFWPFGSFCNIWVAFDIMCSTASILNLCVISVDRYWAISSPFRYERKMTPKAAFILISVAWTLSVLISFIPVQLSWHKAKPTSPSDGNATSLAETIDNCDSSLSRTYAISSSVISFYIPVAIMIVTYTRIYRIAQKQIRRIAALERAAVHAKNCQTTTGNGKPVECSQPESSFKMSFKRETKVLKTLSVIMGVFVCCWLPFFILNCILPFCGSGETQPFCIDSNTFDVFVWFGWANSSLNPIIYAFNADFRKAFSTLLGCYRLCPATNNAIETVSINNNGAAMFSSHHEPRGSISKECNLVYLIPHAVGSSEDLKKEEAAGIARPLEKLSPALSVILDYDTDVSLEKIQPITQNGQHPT

[11] = target: GABA-A receptor; anion channel (Rattus norvegicus) (UniProt O09028+P15431+P18506+P18508+P19969+P20236+P23574+P23576+P28471+P28473+P30191+P62813+P63079+P63138+Q91ZM7+Q9ES14); details: Compound concentration 10.0 uM
[12] = target: T3, MAP/microtubule affinity-regulating kinase 4 (Homo sapiens) (UniProt Q96L34); assay: MARK4 Kinase screen; details: Compound concentration 1.0 uM
T3 sequence (whole entry): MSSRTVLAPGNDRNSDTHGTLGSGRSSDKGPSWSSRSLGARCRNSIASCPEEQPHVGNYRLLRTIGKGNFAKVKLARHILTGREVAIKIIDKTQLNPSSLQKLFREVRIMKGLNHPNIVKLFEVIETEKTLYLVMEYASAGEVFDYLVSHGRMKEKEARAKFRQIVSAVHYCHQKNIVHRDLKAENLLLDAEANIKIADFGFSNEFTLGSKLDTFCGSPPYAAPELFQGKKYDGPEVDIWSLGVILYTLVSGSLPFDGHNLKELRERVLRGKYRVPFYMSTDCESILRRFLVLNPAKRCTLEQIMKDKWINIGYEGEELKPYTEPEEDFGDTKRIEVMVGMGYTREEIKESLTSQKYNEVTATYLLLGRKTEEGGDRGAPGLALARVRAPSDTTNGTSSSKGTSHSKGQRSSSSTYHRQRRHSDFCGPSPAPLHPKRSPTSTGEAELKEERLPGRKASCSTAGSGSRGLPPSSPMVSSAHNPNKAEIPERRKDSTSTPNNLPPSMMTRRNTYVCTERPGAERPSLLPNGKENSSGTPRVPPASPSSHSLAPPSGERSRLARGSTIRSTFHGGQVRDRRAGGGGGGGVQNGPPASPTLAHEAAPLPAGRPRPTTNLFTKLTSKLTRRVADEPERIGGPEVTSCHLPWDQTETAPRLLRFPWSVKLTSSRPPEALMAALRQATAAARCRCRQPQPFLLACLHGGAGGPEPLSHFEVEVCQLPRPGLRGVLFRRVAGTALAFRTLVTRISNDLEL

Measured: inhibition

C[C@@H]1CN(c2cc(-c3n[nH]c4ccc(OC5(C)CC5)cc34)ncn2)C[C@H](C)O1 [MLi-2]
inactive: [1] -0.166% | [2] 5.96% | [3] 1.13% | [4] 14.9% | [5] 17.4% | [6] 4.75% | [7] 42.4% | [8] -2.24% | [9] 0.385% | [10] 12% | [11] 35% | [12] 15.7%

From ChEMBL document CHEMBL4507291 (2021)
